Source: patent EP4480943A1, “NEW CLASS OF LIPIDS FOR DELIVERING ACTIVE INGREDIENTS INTO CELLS” (Oz Biosciences, priority 2023, dated 2024)

Assays:
[1] = Encapsulation efficiency / loaded nucleic acid by SyBr Gold fluorescence after Triton X-100 disruption; assay type: physicochemical
Experimental: (§1) The size and charge of the collected LNPs are determined using DLS (Malvern Instruments NanoZS) by dissolving 50 µL of the collected solution in 950 µL of MilliQ water. Then, formed LNPs are destabilized by adding 1% v/v of Triton X-100 and incubate at 30°C for 1h and vortexing. After disruption of the formulation, a 1/100 solution of SyBr™Gold in water is prepared, and 0.5µL of it added to 49.5µL of the resulting mixture that includes Triton X-100. The SyBr™Gold is also added the same way to 49.5µL of a solution that contains non-disrupted LNPs, and to 49.5µL of the mRNA mother solution. Fluorescence of each sample is then read after 30 min incubation at RT using a Victor (Perkin Elmer) fluorimeter (excitation: 495nm; emission: 537nm ;). The encapsulation efficiency (ee(%)) is easily obtained from these fluorescence measurements using the formula below: ee (%) = ((Fluo_LNP1v%triton−Fluo_LNP))/(Fluo_RNAstock solution) × 100 [formula]

[2] = test system: F-Luc mRNA expression; assay: In vivo transfection of F-Luc mRNA using LNPs, bioluminescence (IVIS imaging); details: nude mice, i.p.
Excerpt: Lipids I, VI and XIV have been formulated into LNPs following the molar composition depicted before (Table 1). 5-methoxyuridine-modified mRNA encoding for Firefly Luciferase (OZ Biosciences, Cat: MRNA16-1000) has been entrapped into the LNP. […] Table 3: Main physical properties of mRNA(F-Luc) LNPs based on tunable lipids I, VI, XIV, and cationic lipid DOTAP
Overall, all LNPs formulations display consistent physico-chemical properties, controlled and reproducible size, charge, polydispersity and encapsulation rate to be used in small animals. A dose equivalent to 10 µg of mRNA has been injected i.p. (intra-peritoneally) in nude mice using three different LNPs. Tunable lipids I and XIV and DOTAP-based LNPs have been selected. Bioluminescence has been monitored over time using IVIS imaging system. […] Indeed 3h post injection, luminescence could be observed in all animals at different proportions (Figure 50). Specifically, F-Luc mRNA expression was higher in mice that received LNPs based on tunable lipids, whereas expression was much lower when DOTAP is used.

[3] = Size and charge of LNPs by DLS (Malvern NanoZS); assay type: physicochemical
Experimental: Thin layer chromatographies (TLC) are carried out on aluminium plates covered with silica gel 60 Fasa (Merck). […] The synthesized products are purified on chromatography columns on silica. The flash chromatography separations are carried out on silica gel 60 (230-400 mesh ASTM) (Merck). Particle size and zeta potential measurements: The mean hydrodynamic particle size and charge measurements were performed using Dynamic Light Scattering (DLS) and Laser Doppler Velocimetry (LDV), respectively, using Malvern Nano ZS instrument and DTS software (Malvern Instruments, UK) in a water of Grade 2. Various amounts of cationic poloxamers were diluted in 100 µl of water and mixed with an equal volume of the same water containing DNA. The measurements were carried out in automatic mode and the results are presented as mean +/- SEM, n= 3. Each mean represents the average value of 30 measurements.
as §1

[4] = test system: ovalbumin (OVA) antigen; assay: In vivo immunization with OVA mRNA LNPs, ELISA and Elispot; details: C57BL6J mice, s.c. prime boost (D0-14), 10µg mRNA
Excerpt: In this context, the emergence of vaccine-based LNPs represents a clear opportunity to reach pathologies impossible to fight with more classical vaccine approach. The tunable lipid presented in this document could envisioned as potent pillar for future nucleic acid-based vaccine, due to their ground-breaking features in term of efficiency and safe character. Thus, LNPs based on tunable lipids I and XIV have been formulated to encapsulate unmodified mRNA coding for the ovalbumin (OVA) antigen (OZ Biosciences, Cat: MRNA42-1000) and their physico-chemical properties determined (Table 4). Table 4: Main physical properties of mRNA(OVA) LNPs based on tunable lipids I and XIV.
C57BL6J mice received a prime boost (D0-14) immunizations of OVA antigen delivered by mRNA-based LNPs or by recombinant protein (alone or adjuvanted with aluminium-based adjuvant). To characterize the immuno-phenotyping of the mice, the sera and splenocytes were collected at different time (D0, D14, D21, D28) and analysed by ELISA and Elispot. The mice were immunized by s.c (sub-cutaneous) route with 100µL per injection at 10µg OVA subunit and 10µg mRNA doses. Results are depicted in figures 51 and 52, mRNA-OVA LNP formulations are efficient at priming a strong humoral response upon sub-cutaneous prime boost injection (D0-14). Indeed, a strong antibody response was measured after prime boost immunization. […]

[5] = test system: firefly luciferase; assay: Biodistribution study of Luciferase mRNA LNPs, RT-PCR of organs; assay type: in vivo; details: nude mice, i.p., 10µg RNA dose, RT-PCR 6 hours after injection
Experimental: Biodistribution study involving tunable lipids-based LNPs (lipids I, VI, and XIV) has also been conducted in nude mice that were injected i.p. with Luciferase mRNA formulated into 3 different LNPs formulations at 10µg RNA dose to evaluate the nucleic acid delivery into various organs. The liver, lung, kidney and spleen were collected and analysed through RT-PCR 6 hours after injection. As observed previously, tunable lipids-based LNPs are appropriately efficient to allow the observation and quantitation of Luciferase protein in quantity 6 hours after i.p. injection.

[6] = mRNA(F-Luc) LNPs, total lipid 5 mM, N/P 6
[7] = mRNA(GFP) LNPs, total lipid 3.75 mM, N/P 6
[8] = DNA pVectOZ (eGFP) LNPs, total lipid 3.91 mM, N/P 6.6
[9] = DNA pVectOZ(Ppt) LNPs, total lipid 4 mM, N/P 10
[10] = mRNA(OVA) LNPs, total lipid 5 mM, N/P 6
[11] = NTsiRNA-Cy5 LNPs, DiO Label N, total lipid 4.74 mM, N/P 6
[12] = NTsiRNA-Cy5 LNPs, DiO Label Y, total lipid 4.74 mM, N/P 6
[13] = DNA pVectOZ (F-Luc) LNPs, total lipid 4.6 mM, N/P 12

CCCCCCCC/C=C\CCCCCCCC(=O)OCC(C[N+](C)(C)C)OC(=O)CCCCCCC/C=C\CCCCCCCC (centres unmarked) [DOTAP, I ,2-dioleoy-3-tri-methylarnmonium propane, reference compound]
Encapsulation Efficiency [1, 6]: 91.5%
Loaded RNA [1, 6]: 183 ng/µL
F-Luc mRNA expression (bioluminescence) ([2]; 10 µg of mRNA, 3h post injection): much lower
PDI [3, 6]: 0.23
Size [3, 6]: 96 nm
Zeta [3, 6]: +17 mV

CCCCCCC/C=C\CCCCCCCCNC(=O)CCC(NC(=O)CCCN(C)C)C(=O)NCCCCCCCC/C=C\CCCCCCCC (centres unmarked) [II]
Encapsulation Efficiency [1, 7]: 98.8%
Loaded RNA [1, 7]: 98.8 ng/µL
PDI [3, 7]: 0.2
Size [3, 7]: 113 nm
Zeta [3, 7]: 5.57 mV

CCCCCCCC/C=C\CCCCCCCCNC(=O)CCC(NC(=O)CN(C)C)C(=O)NCCCCCCCC/C=C\CCCCCCCC (centres unmarked) [I]
Encapsulation Efficiency [1, 8]: 83%
Loaded DNA [1, 8]: 0.125 ng/µL
Encapsulation Efficiency [1, 9]: 82%
Loaded DNA [1, 9]: 0.125 ng/µL
Encapsulation Efficiency [1, 6]: 97.5%
Loaded RNA [1, 6]: 195 ng/µL
Encapsulation Efficiency [1, 7]: 94.6%
Loaded RNA [1, 7]: 94.6 ng/µL
Encapsulation Efficiency [1, 10]: 98.1%
Loaded RNA [1, 10]: 98.1 ng/µL
immune response (initial response of IgG2c) [4]: efficient in generating an immune response
time of maximum bioluminescence signal post injection ([2]; 10 µg mRNA): 6 h
overall luminescence signal (kinetics) ([2]; 10 µg mRNA, over 25h): highest overall luminescence signal
Luciferase gene expression in lung [5]: high protein expression rate
Luciferase gene expression in spleen [5]: high protein expression rate
PDI [3, 8]: 0.044
Size [3, 8]: 158.9 nm
Zeta [3, 8]: +4.61 mV
PDI [3, 9]: 0.079
Size [3, 9]: 173 nm
Zeta [3, 9]: +14.3 mV
PDI [3, 6]: 0.09
Size [3, 6]: 88 nm
Zeta [3, 6]: -7.3 mV
Zeta [3, 7]: -9.3 mV
PDI [3, 10]: 0.153
Size [3, 10]: 111.4 nm
Zeta [3, 10]: -9.01 mV

CCCCCCCC/C=C\CCCCCCCCNC(=O)CCC(NC(=O)CCC(=O)NCCSSCCNC(=O)CN(C)C)C(=O)NCCCCCCCC/C=C\CCCCCCCC (centres unmarked) [VI]
Encapsulation Efficiency [1, 6]: 94%
Loaded RNA [1, 6]: 188 ng/µL
Encapsulation Efficiency [1, 7]: 84%
Loaded RNA [1, 7]: 84 ng/µL
Luciferase gene expression in liver [5]: rate comparable to those observed in the lungs
Luciferase gene expression in spleen [5]: high delivery
PDI [3, 6]: 0.13
Size [3, 6]: 115 nm
Zeta [3, 6]: -2.25 mV
PDI [3, 7]: 0.344
Size [3, 7]: 117 nm
Zeta [3, 7]: +0.3 mV

CCCCCCC/C=C\CCCCCCCCNC(=O)CCC(NC(=O)OCCN(CC)CC)C(=O)NCCCCCCCC/C=C\CCCCCCCC (centres unmarked) [V]
Encapsulation Efficiency [1, 7]: 89%
Loaded RNA [1, 7]: 89 ng/µL

CCCCC/C=C\C/C=C\CCCCCCCCNC(=O)CCC(NC(=O)CCCN(C)C)C(=O)NCCCCCCCC/C=C\C/C=C\CCCCC (centres unmarked) [XIV]
Encapsulation Efficiency [1, 11]: >90%
Loaded siRNA [1, 11]: 0.125 ng/µL
Encapsulation Efficiency [1, 12]: >90%
Loaded siRNA [1, 12]: 0.125 ng/µL
Encapsulation Efficiency [1, 6]: 87.5%
Loaded RNA [1, 6]: 175 ng/µL
Encapsulation Efficiency [1, 7]: 91%
Loaded RNA [1, 7]: 91 ng/µL
Encapsulation Efficiency [1, 10]: 94%
Loaded RNA [1, 10]: 94 ng/µL
immune response (initial response of IgG2c) [4]: efficient in generating an immune response
time of maximum bioluminescence signal post injection ([2]; 10 µg mRNA): 3 h
Luciferase gene expression in kidney [5]: most efficient between the three tested formulation
Luciferase gene expression in lung [5]: highest rate of gene expression
PDI [3, 11]: 0.222
Size [3, 11]: 114 nm
Zeta [3, 11]: +27 mV
PDI [3, 12]: 0.198
Size [3, 12]: 106 nm
Zeta [3, 12]: -2.46 mV
PDI [3, 6]: 0.13
Size [3, 6]: 99 nm
Zeta [3, 6]: +4.85 mV
PDI [3, 7]: 0.186
Size [3, 7]: 115 nm
PDI [3, 10]: 0.149
Size [3, 10]: 131.7 nm
Zeta [3, 10]: -7.9 mV

CCCCC/C=C\C/C=C\CCCCCCCCOC(=O)CCC(NC(=O)CCCN(C)C)C(=O)OCCCCCCCC/C=C\C/C=C\CCCCC (centres unmarked) [XI]
Encapsulation Efficiency [1, 13]: 92%
Loaded DNA [1, 13]: 94 ng/µL
Encapsulation Efficiency [1, 11]: >90%
Loaded siRNA [1, 11]: 0.125 ng/µL
Encapsulation Efficiency [1, 12]: >90%
Loaded siRNA [1, 12]: 0.125 ng/µL
PDI [3, 13]: 0.079
Size [3, 13]: 103 nm
Zeta [3, 13]: +16.5 mV
PDI [3, 11]: 0.091
Size [3, 11]: 116 nm
Zeta [3, 11]: +18.2 mV
PDI [3, 12]: 0.073
Size [3, 12]: 99 nm
Zeta [3, 12]: +19.9 mV
polydispersity index ([3]; NTsiRNA-Cy5 LNPs, with or without DiO): below 0.1

CCCCCCCC/C=C\CCCCCCCC(=O)NCCCC(NC(=O)CCCCCCC/C=C\CCCCCCCC)C(=O)NCCCn1ccnc1 (centres unmarked) [XV]
Encapsulation Efficiency [1, 7]: 78.3%
Loaded RNA [1, 7]: 78.3 ng/µL

CCCCC/C=C\C/C=C\CCCCCCCCOC(=O)CCC(NC(=O)CN(C)C)C(=O)OCCCCCCCC/C=C\C/C=C\CCCCC (centres unmarked) [X]
Encapsulation Efficiency [1, 7]: 83.6%
Loaded RNA [1, 7]: 83.6 ng/µL
PDI [3, 7]: 0.109
Size [3, 7]: 141 nm
Zeta [3, 7]: +11.6 mV
